According to publication PMC5218480 (PLoS ONE, 2017):

Test system: MV-4-11 cells
Test: Gene expression microarray analysis (Affymetrix PrimeView) and GSEA
Assay type: cell-based, human
Parameters: RFU PODN (11730768_x_at) / Fold change /veh PODN (11730768_x_at) / RFU LINC00158 (11744669_a_at) / Fold change /veh LINC00158 (11744669_a_at) / RFU DUSP10 (11751237_a_at) / Fold change /veh DUSP10 (11751237_a_at) / RFU ID3 (11757404_x_at) / Fold change /veh ID3 (11757404_x_at) / RFU PLEKHG5 (11737974_s_at) / Fold change /veh PLEKHG5 (11737974_s_at) / RFU LRRC4B (11730491_at) / Fold change /veh LRRC4B (11730491_at) / RFU GIMAP4 (11747438_a_at) / Fold change /veh GIMAP4 (11747438_a_at) / RFU KRT8 (11758183_x_at) / Fold change /veh KRT8 (11758183_x_at) / RFU CNN1 (11734310_a_at) / Fold change /veh CNN1 (11734310_a_at) / RFU VPS37D (11726825_at) / Fold change /veh VPS37D (11726825_at) / RFU C10orf10 (11716522_x_at) / Fold change /veh C10orf10 (11716522_x_at) / RFU KIR2DL2 /// KIR2DL4 /// KIR2DL5A /// KIR2DL5B /// KIR2DS1 /// KIR2DS2 /// KIR2DS3 /// KIR2DS4 /// KIR3DL3 /// KIR3DL3 /// KIR3DS1 (11738374_at) / Fold change /veh KIR2DL2 /// KIR2DL4 /// KIR2DL5A /// KIR2DL5B /// KIR2DS1 /// KIR2DS2 /// KIR2DS3 /// KIR2DS4 /// KIR3DL3 /// KIR3DL3 /// KIR3DS1 (11738374_at) / RFU C1QL1 (11718748_at) / Fold change /veh C1QL1 (11718748_at) / RFU TMPRSS4 (11747572_a_at) / Fold change /veh TMPRSS4 (11747572_a_at) / RFU HAMP (11756126_x_at) / Fold change /veh HAMP (11756126_x_at) / RFU RNFT2 (11725882_a_at) / Fold change /veh RNFT2 (11725882_a_at) / RFU NR4A2 (11747474_a_at) / Fold change /veh NR4A2 (11747474_a_at) / RFU ABCC12 (11746883_a_at) / Fold change /veh ABCC12 (11746883_a_at) / RFU TMEM136 (11760407_x_at) / Fold change /veh TMEM136 (11760407_x_at) / RFU CLDN22 /// WWC2 (11732394_at) / Fold change /veh CLDN22 /// WWC2 (11732394_at) / RFU HLA-DPB1 (11760878_x_at) / Fold change /veh HLA-DPB1 (11760878_x_at) / RFU SPINT1 (11716480_a_at) / Fold change /veh SPINT1 (11716480_a_at) / RFU GAP43 (11754022_s_at) / Fold change /veh GAP43 (11754022_s_at) / RFU A4GNT (11735810_at) / Fold change /veh A4GNT (11735810_at) / RFU PRB3 (11715151_x_at) / Fold change /veh PRB3 (11715151_x_at) / RFU TUBB4B (11761932_at) / Fold change /veh TUBB4B (11761932_at) / RFU CAPN14 (11732068_a_at) / Fold change /veh CAPN14 (11732068_a_at) / RFU TMCC2 (11721928_a_at) / Fold change /veh TMCC2 (11721928_a_at) / RFU IRGQ (11745062_a_at) / Fold change /veh IRGQ (11745062_a_at) / RFU FAM174B (11720279_a_at) / Fold change /veh FAM174B (11720279_a_at) / RFU TMPRSS4 (11748680_a_at) / Fold change /veh TMPRSS4 (11748680_a_at) / RFU FAM212B (11763350_a_at) / Fold change /veh FAM212B (11763350_a_at) / RFU PLEKHG5 (11743358_a_at) / Fold change /veh PLEKHG5 (11743358_a_at) / RFU ZSCAN30 (11745921_a_at) / Fold change /veh ZSCAN30 (11745921_a_at) / RFU CMKLR1 (11741424_a_at) / Fold change /veh CMKLR1 (11741424_a_at) / RFU LOC101060620 /// MAPK8IP1 (11723275_at) / Fold change /veh LOC101060620 /// MAPK8IP1 (11723275_at) / RFU SPTSSB (11747773_x_at) / Fold change /veh SPTSSB (11747773_x_at) / RFU PRSS12 (11739890_at) / Fold change /veh PRSS12 (11739890_at) / RFU BIN1 (11741810_x_at) / Fold change /veh BIN1 (11741810_x_at) / RFU WNT11 (11732464_a_at) / Fold change /veh WNT11 (11732464_a_at) / RFU C10orf10 (11716521_a_at) / Fold change /veh C10orf10 (11716521_a_at) / RFU C5orf56 (11738089_at) / Fold change /veh C5orf56 (11738089_at) / RFU CYB561 (11721691_x_at) / Fold change /veh CYB561 (11721691_x_at) / RFU ANKRD19P (11752326_a_at) / Fold change /veh ANKRD19P (11752326_a_at) / RFU OR2T12 /// OR2T33 /// OR2T8 (11738714_s_at) / Fold change /veh OR2T12 /// OR2T33 /// OR2T8 (11738714_s_at) / RFU VCAN (11748164_a_at) / Fold change /veh VCAN (11748164_a_at) / RFU JSRP1 (11732532_at) / Fold change /veh JSRP1 (11732532_at) / RFU KRTAP10-11 (11738290_x_at) / Fold change /veh KRTAP10-11 (11738290_x_at) / RFU MYO3A (11730013_a_at) / Fold change /veh MYO3A (11730013_a_at) / RFU EBF3 (11725865_a_at) / Fold change /veh EBF3 (11725865_a_at) / RFU CAMK2N1 (11719241_x_at) / Fold change /veh CAMK2N1 (11719241_x_at) / RFU C5orf56 (11738088_a_at) / Fold change /veh C5orf56 (11738088_a_at) / RFU OLFML3 (11715873_a_at) / Fold change /veh OLFML3 (11715873_a_at) / RFU LOC100653217 /// NTM (11731650_a_at) / Fold change /veh LOC100653217 /// NTM (11731650_a_at) / RFU MAPK11 (11762145_a_at) / Fold change /veh MAPK11 (11762145_a_at) / RFU FIZ1 (11724087_x_at) / Fold change /veh FIZ1 (11724087_x_at) / RFU OASL (11726364_x_at) / Fold change /veh OASL (11726364_x_at) / RFU SOX15 (11748057_x_at) / Fold change /veh SOX15 (11748057_x_at) / RFU CD79A (11719716_a_at) / Fold change /veh CD79A (11719716_a_at) / RFU HIST1H1D (11736915_at) / Fold change /veh HIST1H1D (11736915_at) / RFU CASKIN2 (11723855_a_at) / Fold change /veh CASKIN2 (11723855_a_at) / RFU LOC730098 (11760151_x_at) / Fold change /veh LOC730098 (11760151_x_at) / RFU OR4N2 (11742367_at) / Fold change /veh OR4N2 (11742367_at) / RFU PRRT2 (11749266_a_at) / Fold change /veh PRRT2 (11749266_a_at) / RFU SNX32 (11753110_a_at) / Fold change /veh SNX32 (11753110_a_at) / RFU CDHR5 (11726645_a_at) / Fold change /veh CDHR5 (11726645_a_at) / RFU RCAN1 (11760418_a_at) / Fold change /veh RCAN1 (11760418_a_at) / RFU FAM167A (11723789_a_at) / Fold change /veh FAM167A (11723789_a_at) / RFU FAM26E (11764081_at) / Fold change /veh FAM26E (11764081_at) / RFU ISYNA1 (11749810_s_at) / Fold change /veh ISYNA1 (11749810_s_at) / RFU ACY1 (11761880_at) / Fold change /veh ACY1 (11761880_at) / RFU 11764098_at / Fold change /veh 11764098_at / RFU SAMD14 (11745864_x_at) / Fold change /veh SAMD14 (11745864_x_at) / RFU NPB (11741838_a_at) / Fold change /veh NPB (11741838_a_at) / RFU TMPRSS6 (11731388_a_at) / Fold change /veh TMPRSS6 (11731388_a_at) / RFU KRTAP10-2 (11738614_at) / Fold change /veh KRTAP10-2 (11738614_at) / RFU ARHGAP8 /// PRR5-ARHGAP8 (11727945_x_at) / Fold change /veh ARHGAP8 /// PRR5-ARHGAP8 (11727945_x_at) / RFU KRTAP5-7 /// NADSYN1 (11734609_at) / Fold change /veh KRTAP5-7 /// NADSYN1 (11734609_at) / RFU RASL12 (11751679_a_at) / Fold change /veh RASL12 (11751679_a_at) / RFU CDKN2B (11736163_a_at) / Fold change /veh CDKN2B (11736163_a_at) / RFU PRF1 (11729649_at) / Fold change /veh PRF1 (11729649_at) / RFU, ZNF638 /// ZNF638-IT1 / Fold change vs veh, ZNF638 /// ZNF638-IT1 / RFU, PANK3 / Fold change vs veh, PANK3 / RFU, SH3YL1 / Fold change vs veh, SH3YL1 / RFU, ZEB2 / Fold change vs veh, ZEB2 / RFU, NRIP1 / Fold change vs veh, NRIP1 / RFU, PTTG1IP / Fold change vs veh, PTTG1IP / RFU, CAPN2 / Fold change vs veh, CAPN2 / RFU, MED14 / Fold change vs veh, MED14 / RFU, SNORA58 / Fold change vs veh, SNORA58 / RFU, C1orf63 / Fold change vs veh, C1orf63 / RFU, LRRFIP1 / Fold change vs veh, LRRFIP1 / RFU, NDUFAF7 / Fold change vs veh, NDUFAF7 / RFU, SLC12A2 / Fold change vs veh, SLC12A2 / RFU, IBTK / Fold change vs veh, IBTK / RFU, ESF1 / Fold change vs veh, ESF1 / Fold change vs veh, TMEM50B / RFU, TAOK1 / Fold change vs veh, TAOK1 / RFU, ACBD3 / Fold change vs veh, ACBD3 / RFU, TMA16 / Fold change vs veh, TMA16 / RFU, RWDD3 / Fold change vs veh, RWDD3 / RFU, BCAT1 / Fold change vs veh, BCAT1 / RFU, EDEM3 / Fold change vs veh, EDEM3 / RFU, TMEM33 / Fold change vs veh, TMEM33 / RFU, WDR75 / Fold change vs veh, WDR75 / RFU, AHCTF1 / Fold change vs veh, AHCTF1 / RFU, TFRC / Fold change vs veh, TFRC / RFU, ZDHHC17 / Fold change vs veh, ZDHHC17 / RFU, NOM1 / Fold change vs veh, NOM1 / RFU, ARL8B / Fold change vs veh, ARL8B / RFU, ZBTB11 / Fold change vs veh, ZBTB11 / RFU, TAMM41 / Fold change vs veh, TAMM41 / RFU, KIAA1704 /// LOC100996395 / Fold change vs veh, KIAA1704 /// LOC100996395 / RFU, ING1 / Fold change vs veh, ING1 / RFU, TRMT61B / Fold change vs veh, TRMT61B / RFU, FUBP3 / Fold change vs veh, FUBP3 / RFU, TP53 / Fold change vs veh, TP53 / RFU, TNKS2 / Fold change vs veh, TNKS2 / RFU, ZFP14 / Fold change vs veh, ZFP14 / RFU, ACTR2 / Fold change vs veh, ACTR2 / RFU, PPP3R1 / Fold change vs veh, PPP3R1 / RFU, PIK3R1 / Fold change vs veh, PIK3R1 / RFU, HNRNPA1 / Fold change vs veh, HNRNPA1 / RFU, RNF170 / Fold change vs veh, RNF170 / RFU, ZNF28 / Fold change vs veh, ZNF28 / RFU, RNGTT / Fold change vs veh, RNGTT / RFU, OGT / Fold change vs veh, OGT / RFU, BRD1 / Fold change vs veh, BRD1 / RFU, MARS / Fold change vs veh, MARS / RFU, ZNF655 / Fold change vs veh, ZNF655 / RFU, FAHD1 / Fold change vs veh, FAHD1 / RFU, BDP1 / Fold change vs veh, BDP1 / RFU, LRRCC1 / Fold change vs veh, LRRCC1 / RFU, ARID1A / Fold change vs veh, ARID1A / RFU, ZNF146 / Fold change vs veh, ZNF146 / RFU, ZNF330 / Fold change vs veh, ZNF330 / RFU, GPN3 / Fold change vs veh, GPN3 / RFU, C9orf123 / Fold change vs veh, C9orf123 / RFU, N4BP2L2 / Fold change vs veh, N4BP2L2 / RFU, ARFIP1 / Fold change vs veh, ARFIP1 / RFU, FAM179B / Fold change vs veh, FAM179B / RFU, BCL10 / Fold change vs veh, BCL10 / RFU, UHRF1BP1L / Fold change vs veh, UHRF1BP1L / RFU, BET1 / Fold change vs veh, BET1 / RFU, CNOT2 / Fold change vs veh, CNOT2 / RFU, ZNF268 / Fold change vs veh, ZNF268 / Fold change vs veh, ZNF507 / RFU, DGCR2 / Fold change vs veh, DGCR2 / RFU, WDSUB1 / Fold change vs veh, WDSUB1 / Fold change vs veh, HSP90B1 /// MIR3652 / RFU, ADSS / Fold change vs veh, ADSS / RFU, GK / Fold change vs veh, GK / RFU, ZNF148 / Fold change vs veh, ZNF148 / RFU, TAF9 / Fold change vs veh, TAF9 / RFU, SLC1A5 / Fold change vs veh, SLC1A5 / RFU, SLMO2 / Fold change vs veh, SLMO2 / RFU, ABCC4 / Fold change vs veh, ABCC4 / RFU, LOC101060439 /// RAP1B / Fold change vs veh, LOC101060439 /// RAP1B / RFU, RFX7 / Fold change vs veh, RFX7 / RFU, GTPBP10 / Fold change vs veh, GTPBP10 / RFU, CNEP1R1 / Fold change vs veh, CNEP1R1 / RFU, BIVM-ERCC5 /// ERCC5 / Fold change vs veh, BIVM-ERCC5 /// ERCC5 / RFU, ILF3 / Fold change vs veh, ILF3 / RFU 11762660_at / Fold change /veh 11762660_at / RFU VCAN (11757783_s_at) / Fold change /veh VCAN (11757783_s_at) / RFU DDX43 (11728927_at) / Fold change /veh DDX43 (11728927_at) / RFU KRT8 (11758188_x_at) / Fold change /veh KRT8 (11758188_x_at) / RFU NKD1 (11759106_at) / Fold change /veh NKD1 (11759106_at) / RFU SRD5A1 (11742802_a_at) / Fold change /veh SRD5A1 (11742802_a_at) / RFU TPSAB1 /// TPSB2 (11721975_s_at) / Fold change /veh TPSAB1 /// TPSB2 (11721975_s_at) / RFU GSTM3 (11746129_a_at) / Fold change /veh GSTM3 (11746129_a_at) / RFU IL23R (11737362_x_at) / Fold change /veh IL23R (11737362_x_at) / RFU TMEM51 (11727254_a_at) / Fold change /veh TMEM51 (11727254_a_at) / RFU PIWIL2 (11732686_x_at) / Fold change /veh PIWIL2 (11732686_x_at) / RFU ORM1 (11744905_x_at) / Fold change /veh ORM1 (11744905_x_at) / RFU CCDC152 (11743942_at) / Fold change /veh CCDC152 (11743942_at) / RFU ECM1 (11717891_a_at) / Fold change /veh ECM1 (11717891_a_at) / RFU IL23R (11748794_a_at) / Fold change /veh IL23R (11748794_a_at) / RFU TNFAIP8L3 (11732012_x_at) / Fold change /veh TNFAIP8L3 (11732012_x_at) / RFU MBOAT4 (11741988_at) / Fold change /veh MBOAT4 (11741988_at) / RFU 11764193_at / Fold change /veh 11764193_at / RFU TMEM53 (11763286_at) / Fold change /veh TMEM53 (11763286_at) / RFU MAGEB2 (11727129_at) / Fold change /veh MAGEB2 (11727129_at) / RFU TMEM200A (11744735_a_at) / Fold change /veh TMEM200A (11744735_a_at) / RFU CCDC152 (11751479_a_at) / Fold change /veh CCDC152 (11751479_a_at) / RFU FAM211A (11726209_a_at) / Fold change /veh FAM211A (11726209_a_at) / RFU RGS16 (11746705_a_at) / Fold change /veh RGS16 (11746705_a_at) / RFU VCAN (11755009_s_at) / Fold change /veh VCAN (11755009_s_at) / RFU RHOB (11743442_s_at) / Fold change /veh RHOB (11743442_s_at) / RFU RGS16 (11720943_a_at) / Fold change /veh RGS16 (11720943_a_at) / RFU RGS16 (11720944_at) / Fold change /veh RGS16 (11720944_at) / RFU, VPS4B / Fold change vs veh, VPS4B / RFU, CREB1 / Fold change vs veh, CREB1 / RFU, DNAJC13 / Fold change vs veh, DNAJC13 / RFU, GNAQ / Fold change vs veh, GNAQ / RFU, CDK5R1 / Fold change vs veh, CDK5R1 / RFU, ZRANB3 / Fold change vs veh, ZRANB3 / RFU, CUL4A / Fold change vs veh, CUL4A / RFU, CCNY / Fold change vs veh, CCNY / RFU, UFL1 / Fold change vs veh, UFL1 / RFU, COG3 / Fold change vs veh, COG3 / RFU, DIAPH2 / Fold change vs veh, DIAPH2 / RFU, SKA2 / Fold change vs veh, SKA2 / RFU, AFF3 / Fold change vs veh, AFF3 / RFU, LMF1 / Fold change vs veh, LMF1 / RFU, IPO11 / Fold change vs veh, IPO11 / RFU, DFFB / Fold change vs veh, DFFB / RFU, FOXP1 / Fold change vs veh, FOXP1 / RFU, CARD8 / Fold change vs veh, CARD8 / RFU, STRN3 / Fold change vs veh, STRN3 / RFU, ADK / Fold change vs veh, ADK / RFU, RASSF2 / Fold change vs veh, RASSF2 / RFU, WIPF1 / Fold change vs veh, WIPF1 / RFU, LARP1B / Fold change vs veh, LARP1B / RFU, RASA1 / Fold change vs veh, RASA1 / RFU, RB1 / Fold change vs veh, RB1 / RFU, PPFIA1 / Fold change vs veh, PPFIA1 / RFU, MAT2A / Fold change vs veh, MAT2A / RFU, CCT5 / Fold change vs veh, CCT5 / RFU, WDR92 / Fold change vs veh, WDR92 / RFU, CUX1 / Fold change vs veh, CUX1 / RFU, TTC7A / Fold change vs veh, TTC7A / RFU, TMEM135 / Fold change vs veh, TMEM135 / RFU, DEPTOR / Fold change vs veh, DEPTOR / RFU, CPM / Fold change vs veh, CPM / RFU, DNAJB6 / Fold change vs veh, DNAJB6 / RFU, CACNA2D3 / Fold change vs veh, CACNA2D3 / RFU, DTX4 / Fold change vs veh, DTX4 / RFU, TFCP2 / Fold change vs veh, TFCP2 / RFU, GMCL1 /// GMCL1P1 / Fold change vs veh, GMCL1 /// GMCL1P1 / RFU, AEBP2 / Fold change vs veh, AEBP2 / RFU, SNHG1 /// SNORD22 /// SNORD25 /// SNORD26 /// SNORD27 /// SNORD28 /// SNORD29 /// SNORD31 / Fold change vs veh, SNHG1 /// SNORD22 /// SNORD25 /// SNORD26 /// SNORD27 /// SNORD28 /// SNORD29 /// SNORD31 / Fold change (Aza/veh), C12orf56 (ProbeSet 11735607_a_at) / Fold change (ACY-1035/veh), C12orf56 (ProbeSet 11735607_a_at) / Fold change (Aza/veh), FGFR1OP (ProbeSet 11751329_s_at) / Fold change (ACY-1035/veh), FGFR1OP (ProbeSet 11751329_s_at) / Fold change (Aza/veh), VPS36 (ProbeSet 11739960_a_at) / Fold change (ACY-1035/veh), VPS36 (ProbeSet 11739960_a_at) / RFU SYPL1 (11715823_x_at) / Fold change /veh SYPL1 (11715823_x_at) / RFU IGFBP7 (11715501_s_at) / Fold change /veh IGFBP7 (11715501_s_at) / RFU REEP3 (11722064_at) / Fold change /veh REEP3 (11722064_at) / RFU IGLL1 (11728026_x_at) / Fold change /veh IGLL1 (11728026_x_at): dose or concentration left out as unconfirmed
Settings: MV-4-11 cells, 48 hours

SMILES: Nc1ccc(-c2cccs2)cc1NC(=O)c1ccc2c(c1)cc(C1CC1)n2CCN1CCOCC1 [ACY-1035]
- Fold change /veh GAP43 (11754022_s_at): 0.88
